Our source for the half-life, Activity and EC50 values is ChEMBL document CHEMBL1240496, “Development of potent glucagon-like peptide-1 agonists with high enzyme stability via introduction of multiple lactam bridges” (J Med Chem, 2010).

SMILES strings stand for the structures. pEC50: −log10 of the molar value. Bridge positions count the residues as written; N and C are the ends. Peptide text beside a SMILES is read from it.

Data set [1] relates to DPP4. As to the kind of experiment: Chemical stability of the compound assessed as half life up to 24 hrs by HPLC analysis in presence of human recombinant DPP4. It counts as physicochemical.
The target in data set [2] is T1, Glucagon-like peptide 1 receptor (Homo sapiens, UniProt P43220). Briefly: Activation of human GLP1 receptor expressed in HEK293 cells assessed as increase in cAMP accumulation relative to GLP1. The format is functional, cell-based.
Data set [3] has as its system NEP 24.11. Briefly: Chemical stability of the compound assessed as half life up to 24 hrs by HPLC analysis in presence of human recombinant NEP 24.11. The format is physicochemical.
For data set [4], the target named is T1, Glucagon-like peptide 1 receptor. As to the kind of experiment: Activation of human GLP1 receptor expressed in HEK293 cells assessed as increase in cAMP accumulation. The format is functional, cell-based. The conditions noted are these: read-out: EC50. Background: cAMP levels reflect the balance of adenylyl cyclase and phosphodiesterase activity.

T1 sequence (P43220 whole entry): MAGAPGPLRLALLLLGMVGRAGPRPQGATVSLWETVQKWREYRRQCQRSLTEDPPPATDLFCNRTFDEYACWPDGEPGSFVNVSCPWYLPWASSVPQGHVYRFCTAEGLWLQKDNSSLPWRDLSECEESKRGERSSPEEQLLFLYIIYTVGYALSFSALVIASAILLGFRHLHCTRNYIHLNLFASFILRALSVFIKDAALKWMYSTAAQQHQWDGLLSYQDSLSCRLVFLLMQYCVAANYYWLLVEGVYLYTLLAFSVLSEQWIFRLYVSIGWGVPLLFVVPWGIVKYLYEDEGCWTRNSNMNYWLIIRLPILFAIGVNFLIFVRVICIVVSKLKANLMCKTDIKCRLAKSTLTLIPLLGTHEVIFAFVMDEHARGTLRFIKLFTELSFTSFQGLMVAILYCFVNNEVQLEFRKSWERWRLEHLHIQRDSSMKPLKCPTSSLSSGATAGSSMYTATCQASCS

The half-life is the time needed for the level to fall by half in the phase considered. One may read the pEC50 as the negative decadic logarithm of the EC50, by convention in mol/L. Consider `CC[C@H](C)[C@H](NC(=O)[C@H](Cc1ccccc1)NC(=O)[C@H](CCC(=O)O)NC(=O)[C@@H]1CCC(=O)NCCCC[C@H](NC(=O)[C@H](CCC(=O)O)NC(=O)[C@H](CC(C)C)NC(=O)[C@H](Cc2ccc(O)cc2)NC(=O)[C@H](CO)NC(=O)[C@H](CO)NC(=O)[C@@H](NC(=O)[C@H](CC(=O)O)NC(=O)[C@H](CO)NC(=O)[C@@H](NC(=O)[C@H](Cc2ccccc2)NC(=O)[C@@H](NC(=O)CNC(=O)[C@H](CCC(=O)O)NC(=O)[C@H](C)NC(=O)[C@@H](N)Cc2cnc[nH]2)[C@@H](C)O)[C@@H](C)O)C(C)C)C(=O)N[C@@H](CCC(N)=O)C(=O)N[C@@H](C)C(=O)N[C@@H](C)C(=O)N1)C(=O)N[C@H]1CCCCNC(=O)CC[C@@H](C(=O)NCC(=O)N[C@@H](CCCNC(=N)N)C(N)=O)NC(=O)[C@H](C(C)C)NC(=O)[C@H](CC(C)C)NC(=O)[C@H](Cc2c[nH]c3ccccc23)NC1=O` (H-HAEGTFTSDVSSYLEKQAAEEFIKWLVEGR-NH2; lactam 16-20, 24-28), for which the values for the half-life in data set [1] and in data set [3] were 7.3 h and 1.2 h, respectively. The Activity in data set [2] is 210%. Besides, in data set [4], the pEC50 was 8.66.

`CC[C@H](C)[C@H](NC(=O)[C@H](Cc1ccccc1)NC(=O)[C@H](CCC(=O)O)NC(=O)[C@H](CCCCN)NC(=O)[C@H](C)NC(=O)[C@H](C)NC(=O)[C@H](CCC(N)=O)NC(=O)CNC(=O)[C@H](CCC(=O)O)NC(=O)[C@@H]1CCCCNC(=O)CC[C@H](NC(=O)[C@H](CC(=O)O)NC(=O)[C@H](CO)NC(=O)[C@@H](NC(=O)[C@H](Cc2ccccc2)NC(=O)[C@@H](NC(=O)CNC(=O)[C@H](CCC(=O)O)NC(=O)[C@H](C)NC(=O)[C@@H](N)Cc2cnc[nH]2)[C@@H](C)O)[C@@H](C)O)C(=O)N[C@@H](CO)C(=O)N[C@@H](CO)C(=O)N[C@@H](Cc2ccc(O)cc2)C(=O)N1)C(=O)N[C@H]1CCC(=O)NCCCC[C@@H](C(=O)NCC(=O)N[C@@H](CCCNC(=N)N)C(N)=O)NC(=O)[C@H](C(C)C)NC(=O)[C@H](CC(C)C)NC(=O)[C@H](Cc2c[nH]c3ccccc23)NC1=O` (H-HAEGTFTSDESSYKEGQAAKEFIEWLVKGR-NH2; lactam 10-14, 24-28): the Activity in data set [2] is 140%.

`CC[C@H](C)[C@H](NC(=O)[C@H](Cc1ccccc1)NC(=O)[C@H](CCC(=O)O)NC(=O)[C@H](CCCCN)NC(=O)[C@H](C)NC(=O)[C@H](C)NC(=O)[C@H](CCC(N)=O)NC(=O)[C@@H]1CCC(=O)NCCCC[C@H](NC(=O)[C@H](CO)NC(=O)[C@@H](NC(=O)[C@H](CC(=O)O)NC(=O)[C@H](CO)NC(=O)[C@@H](NC(=O)[C@H](Cc2ccccc2)NC(=O)[C@@H](NC(=O)CNC(=O)[C@H](CCC(=O)O)NC(=O)[C@H](C)NC(=O)[C@@H](N)Cc2cnc[nH]2)[C@@H](C)O)[C@@H](C)O)C(C)C)C(=O)N[C@@H](Cc2ccc(O)cc2)C(=O)N[C@@H](CC(C)C)C(=O)N[C@@H](CCC(=O)O)C(=O)N1)C(=O)N[C@H]1CCCCNC(=O)CC[C@@H](C(=O)NCC(=O)N[C@@H](CCCNC(=N)N)C(N)=O)NC(=O)[C@H](C(C)C)NC(=O)[C@H](CC(C)C)NC(=O)[C@H](Cc2c[nH]c3ccccc23)NC1=O` (H-HAEGTFTSDVSKYLEEQAAKEFIKWLVEGR-NH2; lactam 12-16, 24-28): the half-life in data set [1] amounted to 4.1 h; in data set [3], 18 h. Also, the Activity in data set [2] was found to be 460%. Further, in data set [4], the pEC50 was 9.00.

For the compound `CC[C@H](C)[C@H](NC(=O)[C@H](Cc1ccccc1)NC(=O)[C@H](CCC(=O)O)NC(=O)[C@@H]1CCCCNC(=O)CC[C@H](NC(=O)[C@H](CCC(=O)O)NC(=O)[C@@H]2CCCCNC(=O)CC[C@H](NC(=O)[C@H](CC(=O)O)NC(=O)[C@H](CO)NC(=O)[C@@H](NC(=O)[C@H](Cc3ccccc3)NC(=O)[C@@H](NC(=O)CNC(=O)[C@H](CCC(=O)O)NC(=O)[C@H](C)NC(=O)[C@@H](N)Cc3cnc[nH]3)[C@@H](C)O)[C@@H](C)O)C(=O)N[C@@H](CO)C(=O)N[C@@H](CO)C(=O)N[C@@H](Cc3ccc(O)cc3)C(=O)N2)C(=O)N[C@@H](CCC(N)=O)C(=O)N[C@@H](C)C(=O)N[C@@H](C)C(=O)N1)C(=O)N[C@H]1CCC(=O)NCCCC[C@@H](C(=O)NCC(=O)N[C@@H](CCCNC(=N)N)C(N)=O)NC(=O)[C@H](C(C)C)NC(=O)[C@H](CC(C)C)NC(=O)[C@H](Cc2c[nH]c3ccccc23)NC1=O` (H-HAEGTFTSDESSYKEEQAAKEFIEWLVKGR-NH2; lactam 10-14, 16-20, 24-28), the Activity in data set [2] turned out to be 260%.

`CC[C@H](C)[C@H](NC(=O)[C@H](Cc1ccccc1)NC(=O)[C@H](CCC(=O)O)NC(=O)[C@@H]1CCCCNC(=O)CC[C@H](NC(=O)[C@H](CCC(=O)O)NC(=O)[C@H](CC(C)C)NC(=O)[C@H](Cc2ccc(O)cc2)NC(=O)[C@H](CO)NC(=O)[C@H](CO)NC(=O)[C@@H](NC(=O)[C@H](CC(=O)O)NC(=O)[C@H](CO)NC(=O)[C@@H](NC(=O)[C@H](Cc2ccccc2)NC(=O)[C@@H](NC(=O)CNC(=O)[C@H](CCC(=O)O)NC(=O)[C@H](C)NC(=O)[C@@H](N)Cc2cnc[nH]2)[C@@H](C)O)[C@@H](C)O)C(C)C)C(=O)N[C@@H](CCC(N)=O)C(=O)N[C@@H](C)C(=O)N[C@@H](C)C(=O)N1)C(=O)N[C@@H](C)C(=O)N[C@@H](Cc1c[nH]c2ccccc12)C(=O)N[C@@H](CC(C)C)C(=O)N[C@H](C(=O)N[C@@H](CCCCN)C(=O)NCC(=O)N[C@@H](CCCNC(=N)N)C(=O)O)C(C)C`: the Activity in data set [2] amounted to 160%.

Turning to `CC[C@H](C)[C@H](NC(=O)[C@H](Cc1ccccc1)NC(=O)[C@H](CCC(=O)O)NC(=O)[C@H](CCCCN)NC(=O)[C@H](C)NC(=O)[C@H](C)NC(=O)[C@H](CCC(N)=O)NC(=O)[C@@H]1CCCCNC(=O)CC[C@H](NC(=O)[C@H](CO)NC(=O)[C@@H](NC(=O)[C@H](CC(=O)O)NC(=O)[C@H](CO)NC(=O)[C@@H](NC(=O)[C@H](Cc2ccccc2)NC(=O)[C@@H](NC(=O)CNC(=O)[C@H](CCC(=O)O)NC(=O)[C@H](C)NC(=O)[C@@H](N)Cc2cnc[nH]2)[C@@H](C)O)[C@@H](C)O)C(C)C)C(=O)N[C@@H](Cc2ccc(O)cc2)C(=O)N[C@@H](CC(C)C)C(=O)N[C@@H](CCC(=O)O)C(=O)N1)C(=O)N[C@H]1CCC(=O)NCCCC[C@@H](C(=O)NCC(=O)N[C@@H](CCCNC(=N)N)C(N)=O)NC(=O)[C@H](C(C)C)NC(=O)[C@H](CC(C)C)NC(=O)[C@H](Cc2c[nH]c3ccccc23)NC1=O`, the Activity in data set [2] was 240%.

For the compound `CC[C@H](C)[C@H](NC(=O)[C@H](Cc1ccccc1)NC(=O)[C@H](CCC(=O)O)NC(=O)[C@@H]1CCCCNC(=O)CC[C@H](NC(=O)[C@H](CCC(=O)O)NC(=O)[C@@H]2CCCCNC(=O)CC[C@H](NC(=O)[C@H](CC(=O)O)NC(=O)[C@H](CO)NC(=O)[C@@H](NC(=O)[C@H](Cc3ccccc3)NC(=O)[C@@H](NC(=O)CNC(=O)[C@H](CCC(=O)O)NC(=O)[C@H](C)NC(=O)[C@@H](N)Cc3cnc[nH]3)[C@@H](C)O)[C@@H](C)O)C(=O)N[C@@H](CO)C(=O)N[C@@H](CO)C(=O)N[C@@H](Cc3ccc(O)cc3)C(=O)N2)C(=O)N[C@@H](CCC(N)=O)C(=O)N[C@@H](C)C(=O)N[C@@H](C)C(=O)N1)C(=O)N[C@H]1CCC(=O)NCCCC[C@@H](C(=O)NCC(=O)N[C@@H](CCCN=C(N)N)C(N)=O)NC(=O)[C@H](C(C)C)NC(=O)[C@H](CC(C)C)NC(=O)[C@H](Cc2c[nH]c3ccccc23)NC1=O` (H-HAEGTFTSDESSYKEEQAAKEFIEWLVKGR-NH2; lactam 10-14, 16-20, 24-28), the values for the half-life in data set [1] and in data set [3] were greater than 24 h and greater than 96 h, respectively. Further, the pEC50 in data set [4] was 8.74.
